Measured values reported in patent publication US20210253557A1, “SUBSTITUTED TRIAZOLE DERIVATIVES AND USES THEREOF” (Bayer Pharma Aktiengesellschaft, priority 2017, published 2021).

How the values were obtained:
human V1a receptor = molecular target: T1, human V1a receptor (Homo sapiens, UniProt P37288); assay: Cellular in vitro assay for determining vasopressin receptor activity (V1a, aequorin luminescence); assay type: cell-based; conditions: for IC50: CHO cell line transfected with the human V1a receptor, [Arg8]-vasopressin at EC50 concentration, read-out: IC50 hV1a; for ratio IC50 hV2/hV1a: selectivity ratio of IC50 hV2 to IC50 hV1a
T1 construct: expressed in transfected cells; host or cells: CHO K1 (ATCC), also stably transfected with a modified aequorin
T1 sequence (P37288 whole entry): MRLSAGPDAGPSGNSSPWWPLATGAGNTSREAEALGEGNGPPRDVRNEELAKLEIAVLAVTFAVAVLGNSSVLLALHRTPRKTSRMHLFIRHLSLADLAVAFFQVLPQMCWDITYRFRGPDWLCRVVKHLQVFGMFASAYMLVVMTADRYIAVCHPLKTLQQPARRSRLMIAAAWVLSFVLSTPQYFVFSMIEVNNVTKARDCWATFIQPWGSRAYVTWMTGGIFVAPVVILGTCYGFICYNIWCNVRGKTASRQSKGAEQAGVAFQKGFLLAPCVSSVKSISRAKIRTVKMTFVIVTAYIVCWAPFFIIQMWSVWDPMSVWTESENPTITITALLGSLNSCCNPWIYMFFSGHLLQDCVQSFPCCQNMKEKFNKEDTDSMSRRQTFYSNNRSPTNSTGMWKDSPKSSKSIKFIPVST

human V2 receptor = molecular target: T2, human V2 receptor (Homo sapiens, UniProt P30518); assay: Cellular in vitro assay for determining vasopressin receptor activity (V2, CRE-luciferase); assay type: cell-based; conditions: CHO cell line transfected with the human V2 receptor; [Arg8]-vasopressin at EC50 concentration; read-out: IC50 hV2
T2 construct: expressed in transfected cells; host or cells: CHO K1 (ATCC) expressing firefly luciferase under a CRE-responsive promoter
T2 sequence (P30518 whole entry): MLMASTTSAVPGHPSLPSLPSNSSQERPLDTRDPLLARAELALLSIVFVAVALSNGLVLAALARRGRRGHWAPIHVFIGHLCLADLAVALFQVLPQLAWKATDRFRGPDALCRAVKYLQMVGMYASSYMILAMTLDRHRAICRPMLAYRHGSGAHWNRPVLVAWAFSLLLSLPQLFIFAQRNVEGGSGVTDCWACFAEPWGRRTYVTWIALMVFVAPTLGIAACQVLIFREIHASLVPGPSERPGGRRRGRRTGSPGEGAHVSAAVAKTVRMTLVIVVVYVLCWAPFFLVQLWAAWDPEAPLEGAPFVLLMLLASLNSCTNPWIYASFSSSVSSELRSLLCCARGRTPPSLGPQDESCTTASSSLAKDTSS
Method in brief: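 Antagonism was measured as inhibition of a 3-h, EC50-level [Arg8]-vasopressin stimulation, with compounds tested at several concentrations, yielding IC50 values. The read-out was cAMP-driven CRE-luciferase luminescence after lysis, in recombinant CHO K1 cells carrying human V2 receptor. Cells were seeded in 2% FCS DMEM/F12 one day earlier.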

`C[C@H](OC(N)=O)c1nc(Cn2nc(-c3ccc(Cl)cc3)n(C[C@H](O)C(F)(F)F)c2=O)nn1-c1ncccc1Cl` [Example 14, (1S)-1-[3-({3-(4-Chlorophenyl)-5-oxo-4-[(2S)-3,3,3-trifluoro-2-hydroxypropyl]-4,5-dihydro-1H-1,2,4-triazol-1-yl}methyl)-1-(3-chloropyridin-2-yl)-1H-1,2,4-triazol-5-yl]ethyl Carbamate] was tested, and the IC50 (human V1a receptor) was 1.75 nM, the “ratio IC50 hV2/hV1a” value (human V1a receptor) was 29.7 and the IC50 (human V2 receptor) was 52 nM.

For `C[C@@H](OC(N)=O)c1nc(Cn2nc(-c3ccc(Cl)cc3)n(C[C@H](O)C(F)(F)F)c2=O)nn1-c1ncccc1Cl` [Example 15, (1R)-1-[3-({3-(4-Chlorophenyl)-5-oxo-4-[(2S)-3,3,3-trifluoro-2-hydroxypropyl]-4,5-dihydro-1H-1,2,4-triazol-1-yl}methyl)-1-(3-chloropyridin-2-yl)-1H-1,2,4-triazol-5-yl]ethyl Carbamate], the IC50 (human V1a receptor) was 1.02 nM, the “ratio IC50 hV2/hV1a” value (human V1a receptor) was 34.8 and the IC50 (human V2 receptor) was 35.5 nM.

With `C[C@H](OC(N)=O)c1nc(Cn2nc(-c3ccc(Cl)cc3)n(C[C@H](O)C(F)(F)F)c2=O)nn1-c1ccc(Cl)cn1` [Example 16, (1S)-1-[3-({3-(4-Chlorophenyl)-5-oxo-4-[(2S)-3,3,3-trifluoro-2-hydroxypropyl]-4,5-dihydro-1H-1,2,4-triazol-1-yl}methyl)-1-(5-chloropyridin-2-yl)-1H-1,2,4-triazol-5-yl]ethyl Carbamate] the IC50 (human V1a receptor) was 160 nM, the “ratio IC50 hV2/hV1a” value (human V1a receptor) was 0.3 and the IC50 (human V2 receptor) was 52.5 nM.

For `C[C@@H](OC(N)=O)c1nc(Cn2nc(-c3ccc(Cl)cc3)n(C[C@H](O)C(F)(F)F)c2=O)nn1-c1ccc(Cl)cn1` [Example 17, (1R)-1-[3-({3-(4-Chlorophenyl)-5-oxo-4-[(2S)-3,3,3-trifluoro-2-hydroxypropyl]-4,5-dihydro-1H-1,2,4-triazol-1-yl}methyl)-1-(5-chloropyridin-2-yl)-1H-1,2,4-triazol-5-yl]ethyl Carbamate], the IC50 (human V1a receptor) was 557 nM, the “ratio IC50 hV2/hV1a” value (human V1a receptor) was 0.3 and the IC50 (human V2 receptor) was 150 nM.

For `C[C@H](OC(N)=O)c1nc(Cn2nc(-c3ccc(Cl)cc3)n(C[C@H](O)C(F)(F)F)c2=O)nn1-c1ccncc1Cl` [Example 18, (1S)-1-[3-({3-(4-Chlorophenyl)-5-oxo-4-[(2S)-3,3,3-trifluoro-2-hydroxypropyl]-4,5-dihydro-1H-1,2,4-triazol-1-yl}methyl)-1-(3-chloropyridin-4-yl)-1H-1,2,4-triazol-5-yl]ethyl Carbamate], the IC50 (human V1a receptor) was 7.7 nM, the “ratio IC50 hV2/hV1a” value (human V1a receptor) was 3.9 and the IC50 (human V2 receptor) was 30 nM.

`C[C@H](OC(N)=O)c1nc(Cn2nc(-c3ccc(Cl)cc3)n(C[C@H](O)C(F)(F)F)c2=O)nn1-c1c(Cl)cncc1Cl` [Example 19, (1S)-1-[3-({3-(4-Chlorophenyl)-5-oxo-4-[(2S)-3,3,3-trifluoro-2-hydroxypropyl]-4,5-dihydro-1H-1,2,4-triazol-1-yl}methyl)-1-(3,5-dichloropyridin-4-yl)-1H-1,2,4-triazol-5-yl]ethyl Carbamate] was tested, and the IC50 (human V1a receptor) was 1.55 nM, the “ratio IC50 hV2/hV1a” value (human V1a receptor) was 40.7 and the IC50 (human V2 receptor) was 63 nM.

In the case of `C[C@@H](OC(N)=O)c1nc(Cn2nc(-c3ccc(Cl)cc3)n(C[C@H](O)C(F)(F)F)c2=O)nn1-c1c(Cl)cncc1Cl` [Example 20, (1R)-1-[3-({3-(4-Chlorophenyl)-5-oxo-4-[(2S)-3,3,3-trifluoro-2-hydroxypropyl]-4,5-dihydro-1H-1,2,4-triazol-1-yl}methyl)-1-(3,5-dichloropyridin-4-yl)-1H-1,2,4-triazol-5-yl]ethyl Carbamate], the IC50 (human V1a receptor) is reported as 3.3 nM, the “ratio IC50 hV2/hV1a” value (human V1a receptor) is reported as 15.8 and the IC50 (human V2 receptor) is reported as 52 nM.

`C[C@H](OC(N)=O)c1nc(Cn2nc(-c3ccc(Cl)cc3)n(C[C@H](O)C(F)(F)F)c2=O)nn1-c1cnccc1Cl` [Example 21, (1S)-1-[3-({3-(4-Chlorophenyl)-5-oxo-4-[(2S)-3,3,3-trifluoro-2-hydroxypropyl]-4,5-dihydro-1H-1,2,4-triazol-1-yl}methyl)-1-(4-chloropyridin-3-yl)-1H-1,2,4-triazol-5-yl]ethyl Carbamate] was tested, and the IC50 (human V1a receptor) was 1.9 nM, the “ratio IC50 hV2/hV1a” value (human V1a receptor) was 9.2 and the IC50 (human V2 receptor) was 17.5 nM.

With `C[C@H](OC(N)=O)c1nc(Cn2nc(-c3ccc(Cl)cc3)n(C[C@H](O)C(F)(F)F)c2=O)nn1-c1ncccc1OC(F)(F)F` [Example 22, (1S)-1-{3-({3-(4-Chlorophenyl)-5-oxo-4-[(2S)-3,3,3-trifluoro-2-hydroxypropyl]-4,5-dihydro-1H-1,2,4-triazol-1-yl}methyl)-1-[3-(trifluoromethoxy)pyridin-2-yl]-1H-1,2,4-triazol-5-yl}ethyl Carbamate] the IC50 (human V1a receptor) was 9.95 nM, the “ratio IC50 hV2/hV1a” value (human V1a receptor) was 14.4 and the IC50 (human V2 receptor) was 144 nM.

`C[C@@H](OC(N)=O)c1nc(Cn2nc(-c3ccc(Cl)cc3)n(C[C@H](O)C(F)(F)F)c2=O)nn1-c1ncccc1OC(F)(F)F` [Example 23, (1R)-1-{3-({3-(4-Chlorophenyl)-5-oxo-4-[(2S)-3,3,3-trifluoro-2-hydroxypropyl]-4,5-dihydro-1H-1,2,4-triazol-1-yl}methyl)-1-[3-(trifluoromethoxy)pyridin-2-yl]-1H-1,2,4-triazol-5-yl}ethyl Carbamate] was tested, and the IC50 (human V1a receptor) was 5.4 nM, the “ratio IC50 hV2/hV1a” value (human V1a receptor) was 52.8 and the IC50 (human V2 receptor) was 285 nM.

For `NC(=O)OCc1nc(Cn2nc(-c3ccc(Cl)cc3)n(C[C@H](O)C(F)(F)F)c2=O)nn1-c1cccc(Cl)c1` [Example 24, [1-(3-Chlorophenyl)-3-({3-(4-chlorophenyl)-5-oxo-4-[(2S)-3,3,3-trifluoro-2-hydroxypropyl]-4,5-dihydro-1H-1,2,4-triazol-1-yl}methyl)-1H-1,2,4-triazol-5-yl]methyl Carbamate], the IC50 (human V1a receptor) was 25.9 nM, the “ratio IC50 hV2/hV1a” value (human V1a receptor) was 0.2 and the IC50 (human V2 receptor) was 5.29 nM.

In the case of `NC(=O)OCc1nc(Cn2nc(-c3ccc(Cl)cc3)n(C[C@H](OC(N)=O)C(F)(F)F)c2=O)nn1-c1cccc(Cl)c1` [Example 25, (2S)-3-[1-({5-[(Carbamoyloxy)methyl]-1-(3-chlorophenyl)-1H-1,2,4-triazol-3-yl}methyl)-3-(4-chlorophenyl)-5-oxo-1,5-dihydro-4H-1,2,4-triazol-4-yl]-1,1,1-trifluoropropan-2-yl Carbamate], the IC50 (human V1a receptor) is reported as 26.6 nM, the “ratio IC50 hV2/hV1a” value (human V1a receptor) is reported as 0.1 and the IC50 (human V2 receptor) is reported as 2.26 nM.

With `NC(=O)OCc1nc(Cn2nc(-c3ccc(Cl)cc3)n(C[C@H](O)C(F)(F)F)c2=O)nn1-c1cccc(F)c1` [Example 26, [3-({3-(4-Chlorophenyl)-5-oxo-4-[(2S)-3,3,3-trifluoro-2-hydroxypropyl]-4,5-dihydro-1H-1,2,4-triazol-1-yl}methyl)-1-(3-fluorophenyl)-1H-1,2,4-triazol-5-yl]methyl Carbamate] the IC50 (human V1a receptor) was 5.29 nM, the “ratio IC50 hV2/hV1a” value (human V1a receptor) was 0.9 and the IC50 (human V2 receptor) was 4.82 nM.

With `COc1ccccc1-n1nc(Cn2nc(-c3ccc(Cl)cc3)n(C[C@H](O)C(F)(F)F)c2=O)nc1COC(N)=O` [Example 27, [3-({3-(4-Chlorophenyl)-5-oxo-4-[(2S)-3,3,3-trifluoro-2-hydroxypropyl]-4,5-dihydro-1H-1,2,4-triazol-1-yl}methyl)-1-(2-methoxyphenyl)-1H-1,2,4-triazol-5-yl]methyl Carbamate] the IC50 (human V1a receptor) was 1.78 nM, the “ratio IC50 hV2/hV1a” value (human V1a receptor) was 1.8 and the IC50 (human V2 receptor) was 3.11 nM.
